Consider 10 compounds from patent US20090285899A1, “COMBINATION OF DEHYDROEPIANDROSTERONE OR DEHYDROEPIANDROSTERONE-SULFATE WITH A METHYLXANTHINE DERIVATIVE FOR TREATMENT OF ASTHMA OR CHRONIC OBSTRUCTIVE PULMONARY DISEASE” (priority 2003, published 2009).

The subject of one data set is Intracellular adenosine. It counts as in vivo, rat. Here is the method:
Folinic acid (50 mg/kg) was administered intraperitoneally once daily for fourteen days. […] Hearts were removed from animals and flash frozen in liquid nitrogen with 10 s of death. Liver and lungs were removed en bloc and flash frozen with […]. Brain tissue was subsequently dissected.

Data set [1] in a line: Particle size of jet-milled / spray-dried DHEA-S (Malvern Mastersizer X, light microscope). It counts as physicochemical. The conditions noted are these: double pass through the jet mill. The method, then:
Approximately 1 g sample was passed through the jet mill, once, and approximately 2 g sample were passed through the jet mill twice. […] The resulting solution was sonicated for 3 minutes and appeared fully dispersed. The dispersed solutions were tested on a Malvern Mastersizer X with a small volume sampler (SVS) attachment. One sample of dispersed material was tested 5 times. The median particle size or D (v, 0.5) of unmilled material was 52.56 μm and the % RSD (relative standard deviation) was 7.61 for the 5 values. The D (v, 0.5) for a single pass through the jet mill was 3.90 μm and the % RSD was 1.27, and the D (v, 0.5) from a double pass through the jet mill […] and the % RSD was 3.10.
The solution was spray-dried with a B-191 Mini Spray-Drier (Buchi, Flawil, Switzerland) with an inlet temperature of 55° C., outlet temperature of 40° C., at 100% aspirator, at 10% pump, nitrogen flow at 40 mbar and spray flow at 600 units. The spray-dried product was suspended in hexane and Span85 surfactant added to reduce agglomeration. The dispersions were sonicated with cooling for 3-5 minutes for complete dispersion and the dispersed solutions tested on a Malvern Mastersizer X with a Small Volume Sampler (SVS) attachment. […] Visual examination by light microscope of the dispersions of each batch confirmed that spray drying produced small respirable size particles. […]

In data set [2] the test system is HT-29 SF cells. Nature of the data set: Reversal of DHEA-mediated growth inhibition. It counts as cell-based, human. The conditions noted are these: 25 μM DHEA, 48 hours of treatment.
The test system of data set [3] is HT-29 SF cells. Nature of the data set: Reversal of DHEA effect on cell cycle. The conditions noted are these: 25 FM DHEA. It counts as cell-based, human.
Data set [4] relates to HT-29 SF cells. Nature of the data set: DHEA effect on cell cycle (flow cytometry). It counts as cell-based, human. Particulars: 25-200 μM, 24-72 hours. Here is the method: Cells were plated at 10^5/60-mm dish in duplicate. […] Cultures were trypsinized following 0, 24, 48, or 74 hours and fixed and stained using a modification of a procedure of Bauer et al., Cancer Res. 46, 3173-3178 (1986). Briefly, cells were collected by centrifugation and resuspended in cold phosphate-buffered saline. Cells were fixed in 70% ethanol, washed, and resuspended in phosphate-buffered saline.
After 24, 48, and 72 hours, cells were harvested, fixed in ethanol, and stained with propidium iodide, and the DNA content/cell was determined by flow cytometric analysis. The percentage of cells in G1, S, and G2M phases was calculated using the Cellfit cell cycle analysis program. S phase is marked by a quadrangle for clarity. Representative histograms from duplicate determinations are shown. The experiment was repeated three times.

Another data set is described as follows: Solubility of DHEA-S. Format: physicochemical. An excerpt:
Inhalation of pure water can produce a cough stimulus. […] The temperature effect is weaker at high NaCl concentrations.

For data set [5], the system named is HT-29 SF cells. Nature of the data set: DHEA effect on cell growth. Particulars: 12.5-200 μM, 24-72 hours.
Procedure: Cell cultures, HT-29 SF cells, which represent a subline of HY-29 cells (ATCC, Rockville, Md.) and are adapted for growth in completely defined serum-free PC-1 medium (Ventrex, Portland, Me.), were obtained. Stock cultures were maintained in this medium at 37° C. (in a humidified atmosphere containing 5% CO2).
The nature of data set [6]: Physicochemical testing of DHEA-S dihydrate before and after micronization. Particulars: for Water: Karl Fischer. Here is the method:
Surface area is determined using five point BET analyses are performed with nitrogen as the adsorbing gas (P/Po=0.05 to 0.30) using a Micromeritics TriStar surface area analyzer. Particle size distributions are measured by laser diffraction using a Micromeritics Saturn Digisizer where the particles are suspended in mineral oil with sodium dioctyl sodium sulfosuccinate as a dispersing agent. Drug substance water content is measured by Karl Fischer titration (Schott Titroline KF). Pure water is used as the standard and all relative standard deviations for triplicates are less than 1%. Powder is added directly to the titration media.

A further data set concerns Human ASM cells. The experiment in a line: [3H]-thymidine incorporation (DNA synthesis) in human airway smooth muscle cells. Format: cell-based. The conditions noted are these: alone or in combinations. An excerpt: Human ASM cells were obtained from the distal trachea of transplant donors in compliance with the University of Pennsylvania's Institutional Review Board. Distal trachealis was dissected free of connective tissue and enzymatically digested to yield approximately 1×10^4 human ASM cells. […] The cells were scraped and placed on filters which were then counted using a beta counter. All experiments were repeated in a minimum of three human ASM cell lines. All conditions per experiment were run with six replicates.
There are three classes of commonly used anti-asthma medications that alter cAMP concentrations and/or adenosine concentrations. These classes of drugs are: methylxanthines, beta-agonists and phosphodiesterase inhibitors. For each of these drug classes, isobutylmethylxanthine (IBMX) was used as the tool compound to inhibit smooth muscle proliferation.
On the technique in general: Dividing cells build labelled thymidine or BrdU into new DNA.

Data set [7] in a line: Short-term solution stability of DHEA-S nebulizer formulation. Format: physicochemical. Particulars: 10 mg/mL in 0.12% NaCl, RT (24-26° C.). Here is the method:
Aliquots of this solution are filled into clear glass vials and stored at RT (24-26° C.) and at 40° C. The samples are checked daily for DHEA-S content, DHEA content, and appearance. For each time point, duplicate samples are withdrawn and diluted from each vial. […] The study is stopped on day three. […] The solution should easily be stable for the day of reconstitution in a clinical trial. The following section describes the aerosol properties of this formulation.

For data set [8] the following is noted: COPD patients, background; cited from earlier work.

“And” between values parts separate entries of the source, which are not always exact repeats. Equal values may be shown once. Read-outs that look alike come from different tables or passages of the source.

As for `Nc1nc(=O)c2c([nH]1)NCC(CNc1ccc(C(=O)N[C@@H](CCC(=O)O)C(=O)O)cc1)N2C=O` (mixture of isomers) [Folinic Acid, Folinic acid], the “Effect of folinic acid alone on adenosine levels” value with Intracellular adenosine (administered alone) is “increase in adenosine levels for all organs studied”. In addition, the “Effect of coadministered folinic acid on steroid-mediated adenosine depletion” value in the data set on Intracellular adenosine (coadministration with DHEA or methyltestosterone) is recorded as “completely abrogated steroid-mediated adenosine depletion”.

`C[C@]12CC[C@H](OS(=O)(=O)[O-])CC1=CC[C@@H]1[C@@H]2CC[C@]2(C)C(=O)CC[C@@H]12.[Na+]` [Anhydrous DHEA-S, sodium dehydroepiandrostenone sulfate]: the “Median particle size D (v, 0.5)” value in data set [1] is 3.25 ™.

Take `CC(C)CCC[C@@H](C)[C@H]1CC[C@H]2[C@@H]3CC=C4C[C@@H](O)CC[C@]4(C)[C@H]3CC[C@]12C` [CH, cholesterol]: the “Effect of supplement on DHEA-induced growth inhibition” value in the data set on HT-29 SF cells [2] is on record as “no such effect”. The “Effect of supplement on DHEA-induced reduction of S phase cells” value with HT-29 SF cells [3] (48 hours) is given as “very little effect”; in the data set with HT-29 SF cells [3] (72 hours), “no effect”.

With `C[C@]12CC[C@H](O)CC1=CC[C@@H]1[C@@H]2CC[C@]2(C)C(=O)CC[C@@H]12` [DHEA, 3β-hydroxyandrost-5-en-17-one], the “Cell cycle effect (in words)” value with HT-29 SF cells [4] is “produced a G1 block in HT-29 SF cells in a time- and dose-dependent manner”. The “Solubility in water (in words)” value in “Solubility of DHEA-S” (water) was “insoluble in water”. Further, the “Inhibition of growth (in words)” value in the data set on HT-29 SF cells [5] is “time- and dose-dependent inhibition of growth”. For the same compound, the “Effect on tissue adenosine (in words)” value in the data set with Intracellular adenosine (rat, in vivo) was “multi-organ depletion of adenosine”.

`C[C@]12CC[C@H](OS(=O)(=O)[O-])CC1=CC[C@@H]1[C@@H]2CC[C@]2(C)C(=O)CC[C@@H]12.[Na+]` [DHEA-S dihydrate, sodium dehydroepiandrostenone sulfate]: in data set [6] (Bulk), the Impurities result is “No significant peaks” and the Water was found to be 8.5 % w/w. Further, in data set [6] (Micronized), the Impurities result is “No significant peaks” and the Water stood at 8.4 % w/w. The compound also showed a Surface area in data set [6] (Micronized, five point BET) of 4.9 m^2/g.

For the compound `C[C@]12CC[C@H](OS(=O)(=O)[O-])CC1=CC[C@@H]1[C@@H]2CC[C@]2(C)C(=O)CC[C@@H]12.[Na+]` [DHEA-S, sodium dehydroepiandrostenone sulfate], in the data set on Human ASM cells, the “Effect on smooth muscle proliferation without EGF stimulation (FIG. 18)” value is on record as “neither IBMX nor DHEA-S alone or in combinations inhibits smooth muscle proliferation”. Moreover, in “Solubility of DHEA-S” (15° C., 20 mM Na+, Ksp 1316 mM^2), the “Estimated DHEA-S concentration in solution” value is 27.5 mM and 10.7 mg/mL. Moreover, the “Ksp at 15° C.” value in “Solubility of DHEA-S” (interpolated versus reciprocal of absolute temperature) is 1316 mM^2. In addition, in [7], the “Appearance of solution on storage” value is listed as “a slight precipitate is observed on the third day”.

`C[C@@](O)(CCO)CC(=O)O` [MVA, mevalonic acid]: the “Effect of supplement on DHEA-induced growth inhibition” value in the data set with HT-29 SF cells [2] was “partially overcome”. The “Effect of supplement on DHEA-induced reduction of S phase cells” value is reported as “partially prevented this effect” with HT-29 SF cells [3] (48 hours) and “not after 72 hours” in the data set on HT-29 SF cells [3] (72 hours).

Take `C[C@]12CCC(=O)C=C1CC[C@@H]1[C@@H]2CC[C@@]2(C)[C@H]1CC[C@]2(C)O` [Methyltestosterone, methyltestosterone]: in the data set on Intracellular adenosine (daily for two weeks), the “Effect on tissue adenosine (in words)” value is listed as “multi-organ depletion of adenosine”.

Regarding `CC(C)=CCC/C(C)=C/CC/C(C)=C/CC/C=C(\C)CC/C=C(\C)CCC=C(C)C` [SQ, squalene], the “Effect of supplement on DHEA-induced growth inhibition” value in the data set with HT-29 SF cells [2] is “no such effect”.

Consider `Cn1c(=O)c2[nH]cnc2n(C)c1=O` [Theophylline, 3,7-dihydro-1,3-dimethyl-1H-purine-2,6-dione], for which the “Serum concentrations required for optimal effects” value in data set [8] is 15000 to 20000 ng/mL.
